The record followed here is article PMC9331182, “Characterization of a novel recombinant halophilic β-glucosidase of Trichoderma harzianum derived from Hainan mangrove” (BMC Microbiology, 2022).

For the assay, the system named is T1, Bgl3HB.
T1 construct: pPICZalphaA (alpha-factor secretion) in Komagataella phaffii X33; by primers starts MVNNAA and ends QIQDATP plus C-terminal His6; GH3, GH3-C and Fn3-like domains
In words: pNP release, OD400, Lineweaver-Burk. The assay is classed as biochemical, Trichoderma harzianum. To be noted: pH 4.0, 50 °C, 10 min. The source says:
pNP release, OD400, Lineweaver-Burk on Bgl3HB

Take `O=[N+]([O-])c1ccc(O[C@@H]2O[C@H](CO)[C@@H](O)[C@H](O)[C@H]2O)cc1` [pNPG]: the Km (as a rule, the substrate concentration at which the rate is half of its maximum) was 1220 µM.
